Experimental data reported in PubChem BioAssay AID463203 (Broad Institute, 2010).
The source made the active and inactive calls.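 The calls were made as follows: active = more than half of replicate measurements showing over 20% loss of kinase signal relative to plate controls; inconclusive = some but at most half of replicates over 20% loss; inactive = no replicate over 20% signal loss.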

The compounds below were run against Glycogen synthase kinase-3 alpha (Homo sapiens) (UniProt P49840) (assay: concentration-response blocking of human GSK3A – biochemical, luminescence, cell-free homogeneous, retest, dose response (AID 463203)). Conditions: GSK-3 alpha enzyme, ADP-Glo luminescence, 60 min.
Chain of Glycogen synthase kinase-3 alpha (Homo sapiens) (P49840 whole entry, looked up): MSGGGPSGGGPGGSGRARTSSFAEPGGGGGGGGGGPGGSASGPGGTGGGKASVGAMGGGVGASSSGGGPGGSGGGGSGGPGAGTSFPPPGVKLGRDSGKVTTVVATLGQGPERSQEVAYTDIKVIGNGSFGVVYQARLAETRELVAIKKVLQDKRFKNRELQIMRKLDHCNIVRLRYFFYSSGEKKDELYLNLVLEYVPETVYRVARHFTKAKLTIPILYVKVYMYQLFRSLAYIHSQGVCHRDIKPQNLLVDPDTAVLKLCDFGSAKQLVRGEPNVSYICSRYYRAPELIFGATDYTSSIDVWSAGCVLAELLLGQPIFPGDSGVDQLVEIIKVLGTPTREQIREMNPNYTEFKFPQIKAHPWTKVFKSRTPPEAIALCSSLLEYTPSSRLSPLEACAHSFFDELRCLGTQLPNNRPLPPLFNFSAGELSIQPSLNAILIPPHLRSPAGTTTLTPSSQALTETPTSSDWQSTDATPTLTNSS

Row | SMILES | AC50
1 | COC(=O)c1nnn(-c2ccccc2)c1N | > 30 µM (inactive)
2 | Nc1nc(-c2ccccc2)nc(-c2ccccc2O)n1 | 21.4 µM
3 | COc1cc(C(=O)NCC(=O)N/N=C(C)\C=C\c2ccccc2)cc(OC)c1OC | > 30 µM (inactive)
4 | O=[N+]([O-])c1ccc(-c2nnc(CNC3CCCC3)o2)cc1 | > 30 µM (inactive)
5 | COc1cccc(/C=c2\s/c(=C\C(=O)C(C)(C)C)[nH]c2=O)c1 | > 30 µM (inactive)
6 | CCOCCCN(C(=O)c1snc(C(N)=O)c1N)C(C(=O)NC1CCCC1)c1ccc(O)cc1 (stereo not drawn) | 27 µM
7 | CCOc1ccc(Cn2nnc(C(=O)Nc3cc(OC)cc(OC)c3)c2N)cc1 | 13.7 µM
8 | CCc1c(C)c(C#N)c2nc3ccccc3n2c1NCc1ccccn1 | 16.8 µM
9 | CCOc1ccc(S(=O)(=O)c2c(C(=O)c3ccc(C)cc3)cnc3cc4c(cc23)OCCO4)cc1 | > 30 µM (inactive)
10 | CCOc1ccc(/C=C/C2=Cc3c(sc(NC(=O)CSc4n[nH]c(N)n4)c3C#N)C(C)(C)C2)cc1 | > 30 µM (inactive)
11 | O=[N+]([O-])c1c(NCCCO)cc(Sc2nc3ccccc3s2)c2nonc12 | > 30 µM (inactive)
12 | COc1ccc(Nc2ccc(S(=O)(=O)N3CCCCC3)cc2[N+](=O)[O-])cc1OC | > 30 µM (inactive)
13 | CC(C)OCCCNc1nc2c([nH]1)c(=O)n(C)c(=O)n2C | > 30 µM (inactive)
14 | COc1ccccc1N1CCN(CCC(=O)Nc2cccc(Cl)c2)CC1 | 19.3 µM
15 | COc1ccc(C2CC(=O)Nc3n[nH]c(-c4ccccc4)c32)cc1OC (stereo not drawn) | 26.9 µM
16 | O=C(Nc1c(C(=O)O)oc2ccc(Br)cc12)c1ccccc1 | 3.44 µM
17 | COC(=O)c1cn(C(=O)c2ccccc2F)nc1N | > 30 µM (inactive)
18 | CCOC(=O)c1sc(NC(=O)CN2C(=O)NC3(CCC(C)CC3)C2=O)c(C(=O)OCC)c1C (stereo not drawn) | > 30 µM (inactive)
19 | O=C(NCCCn1ccnc1)C(F)(F)C(F)(F)C(=O)NCCCn1ccnc1 | > 30 µM (inactive)
20 | O=C(O)CN1C(=O)C2C3CC(C2C1=O)C1C(c2ccccc2)c2sc(=O)[nH]c2SC31 (stereo not drawn) | > 30 µM (inactive)
21 | CCc1nnc(NS(=O)(=O)c2ccc(N/C=C(\C=O)c3nc4cc(Cl)ccc4o3)cc2)s1 | 9.24 µM
22 | Cc1cc(NS(=O)(=O)c2ccc(Nc3nc(-c4ccc(O)cc4)cs3)cc2)no1 | 15.3 µM
23 | Fc1ccccc1/C=N/Nc1ncnc2ccccc12 | > 30 µM (inactive)
24 | CC1(C)CC(=O)C(C=Nc2ccc(O)cc2)=C(O)C1 | > 30 µM (inactive)
25 | O=C(NC1(C(F)(F)F)NC(=O)N(Cc2cccnc2)C1=O)c1ccncc1 (stereo not drawn) | > 30 µM (inactive)
26 | O=C(O)c1ccc(N=Nc2c(O)[nH]c3ccc(Br)cc23)cc1 | 3.54 µM

Row | SMILES | AC50
27 | CCOC(=O)c1nnn(-c2nonc2N)c1-c1ccccc1Cl | 8.37 µM
28 | Cc1ccnc(NC(=O)Cn2c(=O)oc3cc(S(=O)(=O)N4CCCC4)ccc32)c1 | 26.9 µM
29 | Clc1ccc(N/N=C/c2ccncc2)cc1Cl | > 30 µM (inactive)
30 | O=[N+]([O-])c1ccc(-c2nnc(-c3ccccc3)c(NCCCO)n2)cc1 | > 30 µM (inactive)
31 | C[n+]1cccc(/C=N/Nc2nc(Cl)c(C#N)c(Cl)c2Cl)c1 | > 30 µM (inactive)
32 | CCC(CC)c1nnc(NC(=O)CCN2C(=O)c3ccccc3C2=O)s1 | > 30 µM (inactive)
33 | CC(OC(=O)c1cccc(N2C(=O)c3ccccc3C2=O)c1)C(=O)Nc1ccc(N(C)C)cc1 (stereo not drawn) | > 30 µM (inactive)
34 | CCOc1ccc(C2C3=C(CCCC3=O)Nc3ccc4ncccc4c32)cc1 (stereo not drawn) | > 30 µM (inactive)
35 | Nc1nc(-c2ccccc2)cc(-c2ccccc2O)n1 | 25.4 µM
36 | COc1ccc(OC)c(/C=N/NC(=O)c2nnn(-c3nonc3N)c2-c2cccs2)c1 | 1.35 µM
37 | CN1CCCN(C(=O)CC(c2ccccc2)c2ccccc2)CC1 | > 30 µM (inactive)
38 | CSc1ccc(/C=N/NC(=O)c2ccccc2Cl)cc1 | > 30 µM (inactive)
39 | CCC(C)[C@H](NC(=O)NCc1ccc(Cl)cc1)C(=O)OC (stereo partly drawn) | > 30 µM (inactive)
40 | O=[N+]([O-])c1ccccc1-c1cc(-c2ccccc2O)n[nH]1 | > 30 µM (inactive)
41 | Cc1sc2nc(SCC(=O)Nc3ccc(S(=O)(=O)NCCCC(=O)O)cc3)[nH]c(=O)c2c1C | 7.13 µM
42 | CCOC(=O)C1=C(O)/C(=C\c2sccc2C)N=C1C | > 30 µM (inactive)
43 | Cc1c(O)ccc2c3c(c(=O)oc12)CCCC3 | 6.63 µM
44 | O=S(=O)(Nc1ccc(-c2nnc(SCc3ccc(Cl)cc3)o2)cc1)c1ccccc1 | > 30 µM (inactive)
45 | O=c1cc(-c2ccccc2Cl)oc2c(NS(=O)(=O)c3cc(Cl)cc(Cl)c3O)ccc(O)c12 | > 30 µM (inactive)
46 | CCN(CC)CCCNc1nc(N)c([N+](=O)[O-])c(N2CCCCCC2)n1 | 29.6 µM
47 | CN1C(=O)N(C)C2(c3ccccc3)Nn3c(s/c(=C/c4ccccc4)c3=O)=NC12c1ccccc1 (stereo not drawn) | > 30 µM (inactive)
48 | O=C(COc1ccc(-n2cnnn2)cc1)Nc1ccc(F)c(F)c1F | > 30 µM (inactive)
49 | O=c1[nH]c(=O)n(Cc2ccco2)c(O)c1/C=N/N1CCCCC1 | > 30 µM (inactive)
50 | Nc1nc(SCC(=O)Nc2ccc(Oc3ccccc3)cc2)n[nH]1 | > 30 µM (inactive)
51 | Oc1cccc(Nc2c3ccccc3nc3ccccc23)c1 | > 30 µM (inactive)
52 | COc1ccc(C2c3sc(=O)[nH]c3SC3C4CCC(C4)C23)cc1OC (stereo not drawn) | 1.92 µM

Row | SMILES | AC50
53 | COc1ccccc1Nc1nc(C)cc(C)n1 | > 30 µM (inactive)
54 | O=C(CN(Cc1ccc(F)cc1)C(=O)CCC(=O)Nc1nccs1)NCc1ccc(F)cc1 | 9.59 µM
55 | CCN=C1S/C(=C/c2ccc(-c3ccc(Cl)cc3C(=O)O)o2)C(=O)N1CC | 4.3 µM
56 | Cc1cccc(C)c1OCC(=O)N=Nc1c(O)[nH]c2ccc(Br)cc12 | > 30 µM (inactive)
57 | COc1ccccc1N1CCN(C(=O)c2cc(-c3ccccc3)on2)CC1 | > 30 µM (inactive)
58 | C/C(=N/NC(=O)c1ccc(C)s1)c1ccncc1 | 27.3 µM
59 | Cc1ccc(-c2cn3cccnc3n2)cc1NC(=O)c1c(-c2ccccc2Cl)noc1C | > 30 µM (inactive)
60 | O=C(CSc1ccccc1)Nc1ccc2c(c1)C(=O)NC2=O | 6.21 µM
61 | CCOC(=O)c1c(C)c[nH]c1C | > 30 µM (inactive)
62 | C[C@H]1CN([C@@H](C)CO)C(=O)c2cccc(NC(=O)c3cnccn3)c2O[C@@H]1CN(C)S(=O)(=O)c1ccc(F)cc1 | 7.19 µM
63 | O=C(O)c1cccc2c1C(=O)c1cc(Br)ccc1S2(=O)=O | > 30 µM (inactive)
64 | Nc1nonc1-n1nnc(C(=O)N/N=C/c2cccs2)c1CSc1ccccc1 | > 30 µM (inactive)
65 | O=C(c1ccc(Cn2cnnn2)cc1)N1CCCC(Nc2ccc(F)cc2)C1 (stereo not drawn) | 16.1 µM
66 | Cc1cccc(NC(=O)COC(=O)c2ccccn2)c1 | > 30 µM (inactive)
67 | O=c1[nH]c(=O)n(C2CCCCC2)c(O)c1C=NCCCn1ccnc1 | 4.06 µM
68 | c1ccc(-c2noc(CSc3nnnn3-c3ccccc3)n2)cc1 | > 30 µM (inactive)
69 | Fc1ccc(C2=Nn3c(nnc3-c3ccco3)SC2)cc1 | > 30 µM (inactive)
70 | COc1cccc(C2C(C(=O)OC(C)C)=C(C)Nc3ncnn32)c1 (stereo not drawn) | 15.2 µM
71 | C=CCN=C1NN=C(c2ccc3c(c2)OCCO3)CS1 | > 30 µM (inactive)
72 | O=c1cc(-c2ccccc2)[nH]n1-c1ccc([N+](=O)[O-])cc1 | > 30 µM (inactive)
73 | Cc1csc(NC(=O)C2CC(=O)N(c3ccc(C)c(C)c3)C2)n1 (stereo not drawn) | > 30 µM (inactive)
74 | CCCNC(=O)Cn1c(-c2ccc(F)cc2)cc(C(=O)OCC)c1C | > 30 µM (inactive)
75 | Nc1nnc(SCC(=O)Nc2sc3c(c2C(=O)c2ccccc2)CCCC3)s1 | > 30 µM (inactive)
76 | C(=N\Nc1ncnc2sc3c(c12)CCC3)/c1ccncc1 | 5.85 µM
77 | COc1cccc(Nc2ncnc3nc[nH]c23)c1 | 19.7 µM
78 | NC(=O)c1ccc(NCCCN2CCOCC2)c([N+](=O)[O-])c1 | > 30 µM (inactive)

Row | SMILES | AC50
79 | CCOc1ccc(-c2nnc(N)o2)cc1 | > 30 µM (inactive)
80 | Cc1cc(NC(=O)c2cccc(S(=O)(=O)N3CC(c4ccccc4)CC3=O)c2)no1 (stereo not drawn) | > 30 µM (inactive)
81 | CCOc1ccc(-c2nc(N)ncc2-c2ccccc2)c(O)c1 | 20.7 µM
82 | Cc1ccc(-n2cnc(N)c2C(=O)c2cccc([N+](=O)[O-])c2)cc1 | 10.8 µM
83 | CCN1CCN(c2nc(Nc3cccc(OC)c3)nc(N)c2[N+](=O)[O-])CC1 | > 30 µM (inactive)
84 | O=C(Oc1cccc([N+](=O)[O-])c1)N1CCCCC1 | > 30 µM (inactive)
85 | O=C(O)C1CCCC[C@H]1C(=O)Nc1ncc([N+](=O)[O-])s1 (stereo partly drawn) | > 30 µM (inactive)
86 | CC1=C(C(=O)OCc2ccc3c(c2)OCO3)C(c2ccccc2OCc2ccccc2)NC(=O)N1 (stereo not drawn) | > 30 µM (inactive)
87 | CC(C)NC(=O)/C(=C\c1cccc([N+](=O)[O-])c1)NC(=O)c1ccccc1 | > 30 µM (inactive)
88 | Cc1nc(C)c(C(=O)Nc2ncc([N+](=O)[O-])s2)o1 | > 30 µM (inactive)
89 | CCCOc1cccc(-c2nnc(N)s2)c1 | > 30 µM (inactive)
90 | COc1ccccc1C(=O)NNC(=O)c1cccc(F)c1 | > 30 µM (inactive)
91 | CCCNC(=O)OCCC12CC3CC(CC(C3)C1)C2 | > 30 µM (inactive)
92 | O=C(Cn1ncc2c(=O)oc3ccccc3c21)N1CCc2ccccc2C1 | > 30 µM (inactive)
93 | COc1ccc(NC(=O)c2nnn(Cc3cccc(F)c3)c2N)c(OC)c1 | > 30 µM (inactive)
94 | CN(C)c1cccc(C(=O)N/N=C/c2ccccc2F)c1 | > 30 µM (inactive)
95 | CCCOc1cc2c(C#N)c(N3CCCC3)nc(N)c2c(N)n1 | > 30 µM (inactive)
96 | O=C(c1ccc2c3n(nc2c1)-c1ccc(Cl)cc1CO3)N1CCCCC1 | > 30 µM (inactive)
97 | Cc1nnc(N/N=C/c2ccc(-c3ccc(Br)cc3)o2)n1N | 15.4 µM
98 | Clc1cccc(/C=N/Nc2ncnc3ccccc23)c1 | > 30 µM (inactive)
99 | COc1ccc2[nH]c(-c3ccc(C)cc3)cc(=O)c2c1 | > 30 µM (inactive)
100 | Cc1occc1C(=O)N/N=C/c1ccc(N(C)C)cc1 | 23.1 µM
101 | CCSC1(SCC)N=C(N)C2(C#N)C(c3ccc(F)cc3)C12C#N (stereo not drawn) | > 30 µM (inactive)
102 | CC1=C(C(=O)OCc2ccc3c(c2)OCO3)C(c2cccc([N+](=O)[O-])c2)NC(=O)N1 (stereo not drawn) | 3.28 µM
103 | O=C1C2C3c4ccccc4C(c4ccccc43)C2C(=O)N1Cc1cccnc1 (stereo not drawn) | > 30 µM (inactive)
